From EP0367514A2, “Human leukocyte elastase inhibitors and methods for producing and using same” (UNIVERSITY OF KENTUCKY RESEARCH FOUNDATION, priority 1988, dated 1990)

Target: T1, enzyme elastase, e.g., human leukocyte elastase (HLE) and porcine pancreatic elastase (PPE) (Homo sapiens, UniProt P08246)
T1 sequence (P08246 30-247): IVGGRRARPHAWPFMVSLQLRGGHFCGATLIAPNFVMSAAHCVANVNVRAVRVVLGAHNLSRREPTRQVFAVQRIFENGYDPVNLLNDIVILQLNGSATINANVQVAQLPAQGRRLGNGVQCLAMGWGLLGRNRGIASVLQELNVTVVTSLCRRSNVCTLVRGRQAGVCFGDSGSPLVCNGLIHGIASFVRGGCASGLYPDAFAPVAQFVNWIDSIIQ
Assay: Elastase enzyme inhibitory studies (Ki of peptidyl carbamates)
Assay type: biochemical
Description: These studies are conducted to show the activities of some of the compounds of this invention as inhibitors of various forms of the enzyme elastase.
All enzyme assays are performed spectrophotometrically at 25 C using CARY 219 or 2200 Vanan Spectrometers. The activity of PPE is measured using 5-Boc-L-alinlne p-mtrophenyl ester (Boc-Ala-ONP), as the substrate and monitoring the absorbance at 347.5 nm (p-nitrophenol). The activity of HLE is measured using methoxy succinyl-L-analyl-L-alanyl L-prolyl-L-valine pnitroanilide (MeO-Suc-Ala-Ala-Pro-Val-NA), as the substrate and following the absorbance at 410 nm (pnitroaniline). Active inhibitors are tested against other serine dependent proteolytic enzymes such as tryps in and chymotryps in using their respective substrates. N-benzoyl-L-arginine ethyl ester, N-benzoyl-L-tyrosine ethyl ester and monitonng the absorbance at 253 and 256 respectively. […]

Row | SMILES | Ki (inhibitor dissociation constant)
1 | COC(=O)CCC(=O)NC(CCCNC(=O)OCc1ccccc1)C(=O)NC(C)C(=O)N1CCCC1C(=O)CN(C(=O)Sc1nnnn1-c1ccccc1)C(C)C (stereo not drawn) [PC6, S-(1-phenyl-5-tetrazoyl)-N-[methoxysuccinyl-(N -carbobenzoyl)ornithylalanyl(prolylmethyl)-N-isopropylthio carbamate] | 3 nM
2 | COC(=O)CCC(=O)NC(C)C(=O)NC(CCCCNC(=O)OCc1ccccc1)C(=O)N1CCCC1C(=O)CN(C(=O)Sc1nnnn1-c1ccccc1)C(C)C (stereo not drawn) [PC5, S-(1-phenyl-5-tetrazoyl)-N-[methoxysuccinyl-alanyl-(N∈-Carbobenzoxyl)lysylprolylmethyl]-N-isopropyl-thio carbamate] | 20 nM
